Source: US11285144B2, “Use of CDK8 inhibitors to treat diseases of inflammation and autoimmunity” (THE BROAD INSTITUTE, INC., priority 2016, dated 2022)
Entries after “also recorded” stand apart in the source; their conditions may differ.

Legend:
STAT1 = STAT1 phosphorylation in IFNγ-stimulated BMDCs; type: cell-based, mouse; settings: IFNγ-induced
Source text: (§1) Together, these kinase profiling, binding assay, enzyme inhibition and cell-based data identify the Mediator-associated kinases CDK8, and to a lesser degree CDK19, as molecular targets of BRD6989.

Cyclin C/CDK8 = Cyclin C/CDK8 (Homo sapiens, UniProt P49336); assay: Kinase activity of recombinant Cyclin C/CDK8; type: biochemical; settings: recombinant complex
Cyclin C/CDK8, sequence (P49336 whole entry, species assumed): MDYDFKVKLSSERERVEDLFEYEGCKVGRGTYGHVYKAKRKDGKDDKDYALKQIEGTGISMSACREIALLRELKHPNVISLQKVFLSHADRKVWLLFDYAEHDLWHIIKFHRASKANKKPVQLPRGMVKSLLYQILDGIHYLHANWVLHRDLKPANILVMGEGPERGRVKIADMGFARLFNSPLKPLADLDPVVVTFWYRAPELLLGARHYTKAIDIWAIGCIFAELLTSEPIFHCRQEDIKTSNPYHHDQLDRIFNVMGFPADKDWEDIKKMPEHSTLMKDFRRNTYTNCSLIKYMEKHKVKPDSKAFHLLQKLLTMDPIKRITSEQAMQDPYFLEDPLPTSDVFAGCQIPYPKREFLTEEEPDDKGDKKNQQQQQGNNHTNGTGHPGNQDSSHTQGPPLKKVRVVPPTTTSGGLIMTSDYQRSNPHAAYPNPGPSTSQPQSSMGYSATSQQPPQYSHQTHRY
Cyclin C/CDK8, sequence (P24863 whole entry partner, species assumed): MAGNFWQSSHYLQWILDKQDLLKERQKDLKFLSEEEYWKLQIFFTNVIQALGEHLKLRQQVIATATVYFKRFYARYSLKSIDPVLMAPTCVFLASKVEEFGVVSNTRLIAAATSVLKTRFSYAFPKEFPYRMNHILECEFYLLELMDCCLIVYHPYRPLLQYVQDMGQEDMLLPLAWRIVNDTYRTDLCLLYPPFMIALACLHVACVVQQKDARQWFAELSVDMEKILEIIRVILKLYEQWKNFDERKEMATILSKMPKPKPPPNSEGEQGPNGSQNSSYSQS
Source text: as §1

R848-stimulated BMDCs = assay: Cytokine production by R848-stimulated BMDCs; type: cell-based, mouse
Source text: (§2) The pyridinyl tetrahydroquinoline BRD6989 (10) emerged as a prioritized hit in the screen (FIG. 2a and Table 2). […] Thus, BRD6989 enhances IL-10 production in activated human and murine macrophages and dendritic cells by a mechanism that appears most pronounced following stimulation of toll-like receptors-7 (TLR7) and TLR8 by R848.
(§3) Pre-treatment with these CDK8/19 inhibitors recapitulated the IL-10 potentiating activity of BRD6989 in both BMDCs (FIG. 9b) along with human DCs derived from two independent donors in the context of R848 stimulation (FIGS. 9c and 10a).

BMDMs = assay: Transcriptional profiling of stimulated BMDMs; type: cell-based, mouse
Experimental: To define systematically the role of CDK8 during innate immune activation, the transcriptional responses elicited by dCA or BRD6989 following stimulation of BMDMs were profiled with a panel of 10 microbial ligands or Sendai virus for time points from 15 min to 4 hours. BMDMs were chosen for these experiments because, like human and mouse DCs, they upregulate IL-10 in response to CDK8 inhibition (FIG. 5c), and they have been previously studied using the multiplexed pathway reporter assay described below (O'Connell, et al., Cell Syst 2:323-34, 2016). In this experiment, the transcriptional responses elicited by BRD6989 and dCA were highly correlated (FIG. 12a), again supporting CDK8 as a principle cellular target of BRD6989.

[1] = test system: naïve, splenic CD4+ T cells; assay: IL-10 production during ex vivo differentiation of Tregs; type: cell-based
Experimental: FIG. 10—Cellular activities of CDK8 inhibitors. […] (b) Effect of CDK7 inhibitor THZ1 on viability and IL-10 production of R848-stimulated BMDCs (each point corresponds to mean±S.D.; n=4 biological replicates from 1 independent experiment). (c) IL-10 levels were quantified in tissue culture media generated during differentiation of naïve, splenic CD4+ T cells into Treg's in the presence of dCA (0.1 μM) or BRD6989 (5 μM) (each point correspond to mean±S.D.; n=3 biological replicates from 1 independent experiment; *, P<0.05; n.s., not significant using one-way ANOVA with Dunnett's post-test). Data from all panels is representative of at least 2 independent experiments.
as §3

[2] = test system: human, monocyte-derived DCs; assay: IL-10 production in human monocyte-derived DCs stimulated with R848; type: cell-based
Source text: as §2, §3

[3] = test system: mouse bone marrow-derived macrophages (BMDMs); assay: IL-10 production in BMDMs activated with Zymosan A or R848; type: cell-based
Source text: as §2

With `CC1CCc2nc(N)c(C#N)c(-c3cccnc3)c2C1` (stereo not drawn) [BRD6989] as the compound, how does the “JAK-mediated phosphorylation of STAT1 Y701” value (STAT1) read?
The value was “did not affect”.

And the “phosphorylation of STAT1 at S727” value (STAT1)?
The value was “inhibited; also recorded: suppresses phosphorylation”.

What about the “phosphorylation of STAT1 at S727” value (STAT1; listed as BRD-6989) of the same compound?
Its value is “Dose dependent inhibition of CDK8 dependent”.

What about the IC50 (Cyclin C/CDK8) of the same compound?
Its IC50 is ~500 nM.

What about the IL-10 production (R848-stimulated BMDCs) of the same compound?
Its IL-10 production is “greater fold-increase in IL-10 production”.

What about the “expression of interferon-inducible genes Ifit2, Cxcl10 and Rsad2” value (BMDMs) of the same compound?
Its value is “reduced expression of the interferon-inducible genes Ifit2, Cxcl10 and Rsad2”.

And the “IL-10 production during Treg differentiation” value [1]?
The value was “neither dCA nor BRD6989 dramatically increased IL-10 production”.

And the IL-10 production [2]?
Its IL-10 production is “up-regulated IL-10”.

What about the IL-10 production [3] of the same compound?
The IL-10 production was “increased IL-10 production; also recorded: up-regulates IL-10 production”.
